Results from US20210130401A1, “PEPTIDOMIMETIC INHIBITORS OF THE WDR5-MLL INTERACTION” (THE REGENTS OF THE UNIVERSITY OF MICHIGAN, priority 2017, published 2021).
pIC50: −log10 of the molar value. Like-named read-outs stand apart in the source and are kept apart here. Starred links: 1 amine or outer side, 2 acyl side, 3 side chain; linkers in the order of their positions; H or OH if unused. Positions of bridges follow the written chain, without caps; N, C: chain ends. Non-standard residues stand in square brackets, D forms with d. Residues, ends and D or L forms follow the SMILES beside them. *: point of attachment. dαMeDab = C[C@](CCN[*:3])(N[*:1])C(=O)[*:2]; Arg(ω-nPr) = CCCNC(=N)NCCC[C@H](N)C(=O)O; dPhe(3-F) = N[C@H](Cc1cccc(F)c1)C(=O)O; Arg(Et) = CCNC(=N)NCCC[C@H](N)C(=O)O; dCha = N[C@H](CC1CCCCC1)C(=O)O; dChg = N[C@@H](C(=O)O)C1CCCCC1; dPhg = N[C@@H](C(=O)O)c1ccccc1; Pyridin(2-yl) = c1ccc(*)nc1; Isobutyryl = CC(C)C(=O)*; Orn = NCCC[C@H](N)C(=O)O; Abu = CC[C@H](N)C(=O)O; Dap = NC[C@H](N)C(=O)O; Acryloyl = C=CC(=O)*

System: MOLM-13 leukemia cells carrying MLL-AF9 fusion
Assay: cell viability assay (WST-8), MOLM-13
Type: cell-based
Details: Homo sapiens, MOLM-13, 96 h; for IC50: read-out: MOLM-13 IC50 (μM); for pIC50: Table 2A, 4 days treatment, read-out: MOLM-13 IC50
Procedure: To assess cell viability, MOLM-13 leukemia cells carrying MLL-AF9 fusion, MV4;11 leukemia cells carrying MLL-AF4 fusion or HL-60 leukemia cells carrying no MLL fusion were seeded 1×10^4 cell/well in 96-well plates and treated with an inhibitor for 4 days at different concentrations, in culture media containing 0.2% DMSO as the final concentration. Cell viability was determined using the WST-8 cell proliferation assay kit (Dojindo Molecular Technologies) according to manufacturer's instructions. Three independent experiments in triplicates were performed.

Compound | IC50 [µM] | pIC50
CC[C@@H]1NC(=O)[C@H](CCCN/C(N)=N/CC(F)(F)F)NC(=O)[C@](C)(NC(=O)C(C)C)CCNC(=O)[C@@H](c2ccccc2)NC1=O [Cpd. No. 22, N-((3R,6S,9S,12R)-6-ethyl-12-methyl-2,5,8,11-tetraoxo-3-phenyl-9-(3-((E)-2-(2,2,2-trifluoroethyl)guanidino)propyl)-1,4,7,10-tetraazacyclotetradecan-12-yl)isobutyramide] | > 10 | –
CC[C@@H]1NC(=O)[C@H](CNc2ccccn2)NC(=O)[C@](C)(NC(=O)C(C)C)CCNC(=O)[C@@H](c2ccccc2)NC1=O [Cpd. No. 10, N-((3R,6S,9S,12R)-6-ethyl-12-methyl-2,5,8,11-tetraoxo-3-phenyl-9-((pyridin-2-ylamino)methyl)-1,4,7,10-tetraazacyclotetradecan-12-yl)isobutyramide] (Isobutyryl-[dαMeDab][Dap](Pyridin(2-yl))[Abu][dPhg]; lactam 1-C) | > 10 | –
CC[C@@H]1NC(=O)[C@H](CCCNC(=N)NC(=N)N)NC(=O)[C@](C)(NC(=O)C(C)C)CCNC(=O)[C@@H](CC2CCCCC2)NC1=O [Cpd. No. 35, N-((3R,6S,9S,12R)-9-(3-(3-carbamimidoylguanidino)propyl)-3-(cyclohexylmethyl)-6-ethyl-12-methyl-2,5,8,11-tetraoxo-1,4,7,10-tetraazacyclotetradecan-12-yl)isobutyramide] | > 10 | –
C=CC(=O)NCCC[C@@H]1NC(=O)[C@](C)(NC(=O)C(C)C)CCNC(=O)[C@@H](c2ccccc2)NC(=O)[C@H](CC)NC1=O [Cpd. No. 23, N-(3-((5S,8R,13R)-5-ethyl-13-isobutyramido-13-methyl-3,6,9,14-tetraoxo-8-phenyl-1,4,7,10-tetraazacyclotetradecan-2-yl)propyl)acrylamide] (Isobutyryl-[dαMeDab][Orn](Acryloyl)[Abu][dPhg]; lactam 1-C) | – | < 5.00
CC[C@@H]1NC(=O)[C@H](CCCNC(=N)N)NC(=O)[C@](C)(NC(=O)C(C)C)CCNC(=O)[C@@H](c2ccc(Cl)cc2)NC1=O [Cpd. No. 100, N-((3R,6S,9S,12R)-3-(4-chlorophenyl)-6-ethyl-9-(3-guanidinopropyl)-12-methyl-2,5,8,11-tetraoxo-1,4,7,10-tetraazacyclotetradecan-12-yl)isobutyramide] | 2.2 | –
C=CC(=O)NCCCC[C@@H]1NC(=O)[C@](C)(NC(=O)C(C)C)CCNC(=O)[C@@H](c2ccccc2)NC(=O)[C@H](CC)NC1=O [Cpd. No. 24, N-(4-((2S,5S,8R,13R)-5-ethyl-13-isobutyramido-13-methyl-3,6,9,14-tetraoxo-8-phenyl-1,4,7,10-tetraazacyclotetradecan-2-yl)butyl)acrylamide] (Isobutyryl-[dαMeDab]K(Acryloyl)[Abu][dPhg]; lactam 1-C) | – | < 5.00
CC[C@@H]1NC(=O)[C@H](CCCNC(=N)N)NC(=O)[C@](C)(NC(=O)C(C)C)CCNC(=O)[C@@](C)(c2ccccc2)NC1=O [Cpd. No. 78, N-((3R,6S,9S,12R)-6-ethyl-9-(3-guanidinopropyl)-3,12-dimethyl-2,5,8,11-tetraoxo-3-phenyl-1,4,7,10-tetraazacyclotetradecan-12-yl)isobutyramide] | > 10 | –
CC[C@@H]1NC(=O)[C@H](CCCNC(=N)N)NC(=O)[C@](C)(NC(=O)C(C)C)CCNC(=O)[C@@H](Cc2ccccc2)NC1=O [Cpd. No. 54, N-((3R,6S,9S,12R)-3-benzyl-6-ethyl-9-(3-guanidinopropyl)-12-methyl-2,5,8,11-tetraoxo-1,4,7,10-tetraazacyclotetradecan-12-yl)isobutyramide] (Isobutyryl-[dαMeDab]R[Abu][dF]; lactam 1-C) | – | 5.80
CC[C@@H]1NC(=O)[C@H](CCCNC(=N)NC#N)NC(=O)[C@](C)(NC(=O)C(C)C)CCNC(=O)[C@@H](CC2CCCCC2)NC1=O [Cpd. No. 33, N-((3R,6S,9S,12R)-9-(3-(3-cyanoguanidino)propyl)-3-(cyclohexylmethyl)-6-ethyl-12-methyl-2,5,8,11-tetraoxo-1,4,7,10-tetraazacyclotetradecan-12-yl)isobutyramide] | 6.5 | –
CCNC(=N)NCCC[C@@H]1NC(=O)[C@](C)(NC(=O)C(C)C)CCNC(=O)[C@@H](CC2CCCCC2)NC(=O)[C@H](CC)NC1=O [Cpd. No. 45, N-((3R,6S,9S,12R)-3-(cyclohexylmethyl)-6-ethyl-9-(3-(3-ethylguanidino)propyl)-12-methyl-2,5,8,11-tetraoxo-1,4,7,10-tetraazacyclotetradecan-12-yl)isobutyramide] (Isobutyryl-[dαMeDab][Arg(Et)][Abu][dCha]; lactam 1-C) | 3.4 | –
CC[C@@H]1NC(=O)[C@H](CCCNC(=N)N)NC(=O)[C@](C)(NC(=O)C(C)C)CCNC(=O)[C@@H](Cc2cccc(F)c2)NC1=O [Cpd. No. 56, N-((3R,6S,9S,12R)-6-ethyl-3-(3-fluorobenzyl)-9-(3-guanidinopropyl)-12-methyl-2,5,8,11-tetraoxo-1,4,7,10-tetraazacyclotetradecan-12-yl)isobutyramide] (Isobutyryl-[dαMeDab]R[Abu][dPhe(3-F)]; lactam 1-C) | 1.29 | –
CC[C@@H]1NC(=O)[C@H](CCNC2=NCCN2)NC(=O)[C@](C)(NC(=O)C(C)C)CCNC(=O)[C@@H](c2ccccc2)NC1=O [Cpd. No. 18, N-((3R,6S,9S,12R)-9-(2-((4,5-dihydro-1H-imidazol-2-yl)amino)ethyl)-6-ethyl-12-methyl-2,5,8,11-tetraoxo-3-phenyl-1,4,7,10-tetraazacyclotetradecan-12-yl)isobutyramide] | > 10 | –
CCCNC(=N)NCCC[C@@H]1NC(=O)[C@](C)(NC(=O)C(C)C)CCNC(=O)[C@@H](CC2CCCCC2)NC(=O)[C@H](CC)NC1=O [Cpd. No. 46, N-((3R,6S,9S,12R)-3-(cyclohexylmethyl)-6-ethyl-12-methyl-2,5,8,11-tetraoxo-9-(3-(3-propylguanidino)propyl)-1,4,7,10-tetraazacyclotetradecan-12-yl)isobutyramide] (Isobutyryl-[dαMeDab][Arg(ω-nPr)][Abu][dCha]; lactam 1-C) | > 10 | –
CC[C@@H]1NC(=O)[C@H](CCCNC(=N)N)NC(=O)[C@](C)(NC(=O)C(C)C)CCNC(=O)[C@@H](CC2CCCCC2)NC1=O [Cpd. No. 52, N-((3R,6S,9S,12R)-3-(cyclohexylmethyl)-6-ethyl-9-(3-guanidinopropyl)-12-methyl-2,5,8,11-tetraoxo-1,4,7,10-tetraazacyclotetradecan-12-yl)isobutyramide] (Isobutyryl-[dαMeDab]R[Abu][dCha]; lactam 1-C) | 1.49 | –
CC[C@@H]1NC(=O)[C@H](CCCNC2CCN(C)CC2)NC(=O)[C@](C)(NC(=O)C(C)C)CCNC(=O)[C@@H](c2ccccc2)NC1=O [Cpd. No. 9, N-((3R,6S,9S,12R)-6-ethyl-12-methyl-9-(3-((1-methylpiperidin-4-yl)arnino)propyl)-2,5,8,11-tetraoxo-3-phenyl-1,4,7,10-tetraazacyclotetradecan-12-yl)isobutyramide] | > 10 | –
CC[C@@H]1NC(=O)[C@H](CCCNC(=N)N)NC(=O)[C@](C)(NC(=O)C(C)C)CCNC(=O)[C@@H](C2CCCCC2)NC1=O [Cpd. No. 51, N-((3R,6S,9S,12R)-3-cyclohexyl-6-ethyl-9-(3-guanidinopropyl)-12-methyl-2,5,8,11-tetraoxo-1,4,7,10-tetraazacyclotetradecan-12-yl)isobutyramide] (Isobutyryl-[dαMeDab]R[Abu][dChg]; lactam 1-C) | 0.64 | –
